Measured values published in US9012439B2, “Use of electrophilic compounds for inducing platelet production or maintaining platelet function” (University of Rochester, priority 2007, dated 2015).

Columns and labels:
[1] = tested on: Meg-01 cells; assay: Reactive oxygen species production in Meg-01 cells (carboxy-H2DCFDA, MitoSOX Red); format: cell-based, human; conditions: Meg-01 cells, 1 h and 6 h; for change in percentage of cells generating mitochondrial superoxide (MitoSOX Red): 10 μM
Protocol: Ten μM carboxy-H2DCFDA was added to cells for 20 min at RT. The cells were washed and immediately analyzed by flow cytometry. Five μM of MitoSOX Red dye in HBSS containing Mg^2+ and Ca^2+ was added to the cells for 15 min at 37° C. The cells were washed in HBSS and analyzed by flow cytometry.

[2] = target: T1, PPARγ (Homo sapiens, UniProt P37231); assay: PPARγ gene reporter analysis (PPRE-luciferase) in Meg-01 cells; format: cell-based; conditions: 10 μM, 24 h after ligand treatment
T1 construct: Meg-01 cells were plated at a density of […] cells per well in a E-well plate and transfected; endogenous in cells; host or cells: Meg-01 cells
T1 sequence (P37231 1-505): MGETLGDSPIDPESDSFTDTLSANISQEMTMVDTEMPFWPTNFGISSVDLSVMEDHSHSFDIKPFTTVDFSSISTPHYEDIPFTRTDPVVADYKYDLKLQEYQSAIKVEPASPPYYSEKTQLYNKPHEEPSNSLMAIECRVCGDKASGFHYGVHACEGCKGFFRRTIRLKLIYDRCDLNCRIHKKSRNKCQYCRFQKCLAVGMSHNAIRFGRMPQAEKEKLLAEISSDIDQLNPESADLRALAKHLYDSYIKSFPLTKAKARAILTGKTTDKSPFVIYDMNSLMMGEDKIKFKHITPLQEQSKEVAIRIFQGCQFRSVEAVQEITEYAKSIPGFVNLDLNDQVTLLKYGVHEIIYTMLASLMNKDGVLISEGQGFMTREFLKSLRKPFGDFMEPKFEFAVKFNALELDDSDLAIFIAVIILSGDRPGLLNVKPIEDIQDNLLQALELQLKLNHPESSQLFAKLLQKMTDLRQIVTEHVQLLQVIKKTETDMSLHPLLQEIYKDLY
Protocol: Meg-01 cells were plated at a density of […] cells per well in a […] and transfected, using lipofectamine LTX (Invitrogen), with a PPRE (Peroxisome Proliferator Response Element)-luciferase reporter plasmid containing three copies of the ACO-PPRE (a gift from Dr. B. Seed, Massachusetts General Hospital, Boston, Mass.). […] Transfection efficiency was determined by transfecting the cells with green fluorescent protein (GFP) plasmid and determining the percentage of cells that were GFP+ by flow cytometry. […] Luciferase activity was assessed 24 h after ligand treatment using the Promega Luciferase Assay System, and relative light units (RLU) were determined using a Lumicount Microplate Luminometer (Packard Instrument Co., Meriden, Conn.).

[3] = tested on: Meg-01 cells; assay: Platelet production from Meg-01 cells (flow cytometry); format: cell-based, human; conditions: Meg-01 cells, 10 μM, 24 h
Protocol: Meg-01 and M07e cells were purchased from the American Type Culture Collection (Rockville, Md.) and Dami cells were a generous gift from Dr. Patricia J. Simpson-Haidaris (University of Rochester). All cells were cultured in RPMI-1640 tissue culture medium (Invitrogen) supplemented with 5% fetal bovine serum (FBS; Invitrogen), 10 mM HEPES (N-2-hydroxyethylpiperazine-N′-2-ethanesulfonic acid; Sigma), 2 mM L-glutamine (Invitrogen), 4.5 g/L glucose (Invitrogen), and 50 μg/mL gentamicin (Invitrogen). M07e cells were also supplemented with 100 ng/mL of granulocyte monocyte-colony stimulating factor (GM-CSF, R&D Systems). All treatments were performed in normal growth media. Dimethyl sulfoxide (DMSO) was used as a vehicle (control) in the experiments described below.
Platelets were isolated from megakaryocytes by centrifugation at 150 xg for 10 min. Supernatants underwent sequential centrifugation (500 xg for 10 min and 1000×g for 10 min). The remaining platelet pellet was fixed then permeabilized with a CD61 or CD41 antibody. 7-AAD (BD Pharmingen) was added for 10 min before analyzing the cells by flow cytometry. Platelets were identified using three well-described parameters (Patel et al., “The Biogenesis of Platelets from Megakaryocyte Proplatelets,” J Clin Invest 115:3348-3354 (2005); Breton-Gorius et al., “Expression of Platelet Proteins During the In Vitro and In Vivo Differentiation of Megakaryocytes and Morphological Aspects of Their Maturation,” Semin Hematol 23:43-67 (1986); Ogura et al., “Establishment of a Novel Human Megakaryoblastic Leukemia Cell Line, MEG-01, With Positive Philadelphia Chromosome,” Blood 66:1384-1392 (1985) and Franks et al., “A Fluorescence Microscopy Method for Quantifying Levels of Prostaglandin Endoperoxide H Synthase-1 and CD-41 in MEG-01 Cells,” Biol Proced Online 3:54-63 (2001), each of which is hereby incorporated by reference in its entirety), size (using normal human platelets as a control), presence of CD61 or CD41 and lack of DNA as determined by the absence of 7-AAD staining Ten thousand platelet events were collected and platelets were quantified by rate (platelet events/second) (Chung et al., “Platelet Activation in Acute, Decompensated Congestive Heart Failure,” Thromb Res 120:709-713 (2007), which is hereby incorporated by reference in its entirety.
A 19 by target sequence was selected to knock down PPARγ. PPARγ was cloned downstream of the RNA polymerase III U6 promoter and subcloned into a FG12 lentiviral vector which expresses green fluorescent protein (GFP) under the Ubiquitin C promoter. HEK 293 cells expressing this siRNA PPARγ had reduced PPARγ protein levels. To make the lentivirus, HEK 293 cells were co-transfected with 3 plasmids: the envelope vector (CMV-VSVG), the transfer vector (FG12-shRNAPPAR), and the packaging construct (pCMVΔ89.2 (gag/pol proteins)). Viral supernatants were collected every 8 h for 2 days and concentrated by ultracentrifugation at 50,000×g for 2 h at 4° C. using a Beckman SW 28 rotor. Viral titers were determined by infection of HeLa cells with serial dilutions of the viral stocks. Meg-01 cells were infected at a multiplicity of infection (MOI) of 20. After 48 h, approximately 56% of the PPARγ siRNA cells were transduced as determined by flow cytometry. The GFP positive (+) cells were then sorted by FACS and grown in RPMI with 5% FBS.

[4] = tested on: primary mouse megakaryocytes; assay: DNA content analysis of primary mouse megakaryocytes; format: cell-based; conditions: by 24 h
Protocol: Bone marrow was isolated from the femora of male C57BL/6 mice (Jackson Laboratories, Bar Harbor, Me.) and plated at a concentration of 1×10^6 cells per well in 12-well plates in IMDM (Iscove's Modified Dulbecco's Media, Invitrogen) with 20% BIT 9500 (BSA, insulin, transferrin) and supplemented with 100 ng/mL of rhTPO. Cells were cultured for 5 days, following which 15d-PGJ2 (10 μM) was added to the culture medium for 24 h. On the sixth day, cells were examined by phase-contrast microscopy using an inverted microscope (Olympus IX81) and images were captured using SPOT RT software (New Hyde Park, N.Y.). Megakaryocytes were identified by preincubating with anti-mouse CD16/32 (FcγR-blocking antibody) and then incubating with PE-conjugated hamster anti-mouse CD41 antibody.
Cells were fixed in 95% ethanol, treated with RNAse (Sigma) followed by 20 μg/mL propidium iodide (Sigma) to stain DNA, and analyzed by flow cytometry.

[5] = tested on: mouse megakaryocyte progenitors (Meg-CFC); assay: Megakaryocyte progenitor (Meg-CFC) assay on bone marrow of treated mice; format: in vivo
Protocol: Primary mouse bone marrow cells were suspended in IMDM at a concentration of 8×10^6 cells/mL. Two-hundred thousand cells were plated in IMDM supplemented with 20% BIT9500, 0.2% 2-mercaptoethanol, 2% Glutamax, and 20% Cellgro-H20 (Mediatech, Herndon, Va.) and cultured with rhTPO (50 ng/mL), IL-3 (10 ng/mL) (Preprotech, Rocky Hill, N.J.), IL-6 (20 ng/mL) (Preprotech), IL-11 (Preprotech) (50 ng/mL), and collagen at 37° for 7 days (Tober et al., “The Megakaryocyte Lineage Originates from Hemangioblast Precursors and is an Integral Component Both of Primitive and of Definitive Hematopoiesis,” Blood 109:1433-1441 (2007), which is hereby incorporated by reference in its entirety). Collagen gels were dehydrated, fixed, and labeled with GPIbβ and GPV, modified by ABC (Vector Labs, Burlingame, Calif.), and developed in Vector Red (Vector Labs). Meg-CFC were defined by their ability to generate colonies containing at least three megakaryocytes.

[6] = tested on: C57BL/6 mice; assay: Irradiation-induced thrombocytopenia (5 Gy total body irradiation); format: in vivo, mouse (C57BL/6); conditions: 5 Gy
Protocol: (§1) Seven or 8-week-old male C57BL/6 mice (Jackson Laboratories) were either exposed to 5 Gy cesium (Cs^137) total body irradiation (TBI) using a Model 8114 6000 Curie Shepherd Cs^137 irradiator (approximately 3200 Curie sealed Cs^137 source) with a dose rate of […] or left unexposed. Mice (n=4) received intravenous injections of vehicle (8% DMSO) or 15d-PGJ2 (1 mg/kg) or CDDO-Me (250 μg/kg) for 4 consecutive days from day 1 (days 1, 2, 3 and 4 post-irradiation). Blood was obtained from the aorta or the orbital sinus. Platelets were counted prior to radiation exposure and after radiation exposure on day 10, day 22, and day 31 in Example 7, or days 4, 10, 16, and 21 in Example 9 using the Heska® CBC-Diff™ Veterinary Analyzer (Fort Collins, Colo.). Data are expressed as average platelet counts from two separate experiments. For the unirradiated mice, platelets were counted on day 4, day 10, and day 15 in Example 7 or on the same days in Example 9.

[7] = tested on: C57BL/6 mice; assay: Circulating platelet number in unirradiated mice; format: in vivo, mouse (C57BL/6); conditions: unirradiated C57BL/6 mice, 1 mg/kg IV four consecutive days, d 4
Protocol: as §1

| PPARγ activation (PPRE-luciferase activity) [2] | Compound | change in percentage of cells generating mitochondrial superoxide (MitoSOX Red) [1] | change in percentage of cells generating ROS (carboxy-H2DCFDA) [1] | platelet production [3] | primary mouse megakaryocyte ploidy [4] | megakaryocyte number [5] | percentage of megakaryocytes producing proplatelets ([5]; mice injected 250 μg/kg for three consecutive days, 7 days of culture) | Meg-CFC colony formation compared to vehicle control ([5]; normal mice, 250 μg/kg for three consecutive days, bone marrow plated day 4) | platelet counts ([6]; 250 μg/kg days 1-4, day 4) | platelet counts ([6]; 250 μg/kg days 1-4, days 10 and 16) | levels of circulating platelets on d 4 [7] |
| --- | --- | --- | --- | --- | --- | --- | --- | --- | --- | --- | --- |
| activated PPARγ | CCCCC/C=C\C=C1\C(=O)CC[C@@H]1C/C=C\CCCC(=O)O [9,10 dihydro-15d-PGJ2, reference compound] | failed to increase the percentage of cells generating mitochondrial superoxide | failed to increase the percentage of cells generating ROS | failed to enhance platelet production |  |  |  |  |  |  |  |
|  | COC(=O)[C@]12CCC(C)(C)C[C@H]1[C@H]1C(=O)C=C3[C@@]4(C)C=C(C#N)C(=O)C(C)(C)[C@@H]4CC[C@@]3(C)[C@]1(C)CC2 [CDDO-Me, methyl-2-cyano-3,12-dioxooleana-1,9-dien-28-oate] |  |  |  | enhanced primary mouse megakaryocyte ploidy | failed to increase megakaryocyte number | significantly augmented the percentage of megakaryocytes producing proplatelets | significantly enhanced Meg-CFC colony formation | increased platelet counts | significantly improved platelet counts |  |
|  | CCCCC/C=C\C=C1\C(=O)C[C@@H](O)[C@H]1C/C=C\CCCC(=O)O [15d-PGD2, 15-deoxy-Δ^12,14-PG22, reference compound] | failed to increase the percentage of cells generating mitochondrial superoxide | failed to increase the percentage of cells generating ROS | failed to enhance platelet production |  |  |  |  |  |  | significant increase in the levels of circulating platelets |
